In ChEMBL document CHEMBL4834430, “Design and Structure-Activity Relationships of Isothiocyanates as Potent and Selective N-Acylethanolamine-Hydrolyzing Acid Amidase Inhibitors” (J Med Chem, 2021):
One block for each compound: values may come before it. Active and inactive are the calls of the source. The calls are words filed in the database; no cut-off is given here.

Key:
[1] = target: T1, N-acylethanolamine-hydrolyzing acid amidase (Homo sapiens, UniProt Q02083); assay: Inhibition of human NAAA using N-(4-methyl coumarin)-palmitamide as fluorogenic substrate preincubated for 90 mins followed by substrate addition by fluorescence assay
T1 sequence (Q02083 whole entry): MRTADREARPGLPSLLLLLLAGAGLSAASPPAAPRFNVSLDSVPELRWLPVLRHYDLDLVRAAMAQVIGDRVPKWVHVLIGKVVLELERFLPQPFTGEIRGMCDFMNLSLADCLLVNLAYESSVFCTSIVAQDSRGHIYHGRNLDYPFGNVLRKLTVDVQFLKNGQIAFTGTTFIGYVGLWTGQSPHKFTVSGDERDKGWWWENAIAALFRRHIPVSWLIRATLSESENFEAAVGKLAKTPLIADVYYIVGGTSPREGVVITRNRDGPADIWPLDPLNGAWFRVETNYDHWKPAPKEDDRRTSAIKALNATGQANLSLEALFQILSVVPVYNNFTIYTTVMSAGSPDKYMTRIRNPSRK

[2] = Half life in human liver microsomes at 1 uM in presence of NADPH by LC-MS/MS analysis; format: ADME, Microsome
[3] = Half life in rat liver microsomes at 1 uM in presence of NADPH by LC-MS/MS analysis; format: ADME, Microsome
[4] = Half life in mouse liver microsomes at 1 uM in presence of NADPH by LC-MS/MS analysis; format: ADME, Microsome
[5] = target: T2, Cathepsin K (Homo sapiens) (UniProt P43235); assay: Inhibition of recombinant human Cathepsin K at 100 nM using Z-Phe-Arg-AMC as fluorogenic substrate preincubated for 120 mins followed by substrate addition by fluorescence assay relative to control
T2 sequence (whole entry): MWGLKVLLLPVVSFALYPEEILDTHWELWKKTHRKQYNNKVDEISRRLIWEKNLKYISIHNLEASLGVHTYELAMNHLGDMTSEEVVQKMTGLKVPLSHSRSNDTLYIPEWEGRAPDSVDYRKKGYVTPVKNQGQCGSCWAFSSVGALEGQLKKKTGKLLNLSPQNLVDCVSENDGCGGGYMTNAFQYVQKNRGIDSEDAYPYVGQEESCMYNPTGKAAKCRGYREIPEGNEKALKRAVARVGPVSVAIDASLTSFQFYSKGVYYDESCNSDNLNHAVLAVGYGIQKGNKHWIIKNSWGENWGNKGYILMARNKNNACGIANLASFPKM

[6] = target: T3, N-acylethanolamine-hydrolyzing acid amidase (Homo sapiens) (UniProt Q02083); assay: Covalent inhibition of human NAAA assessed as ratio of Kinact/Ki
T3 sequence (whole entry): T1 sequence (Q02083 whole entry)

[7] = Drug concentration in plasma of CD-1 mouse at 2 mg/kg, iv administered as single cassette dose measured after 15 mins; format: ADME, organism-based
[8] = Drug concentration in plasma of CD-1 mouse at 8 mg/kg, po administered as single cassette dose measured after 30 mins; format: ADME, organism-based
[9] = target: T2, Cathepsin K (Homo sapiens); assay: Inhibition of recombinant human Cathepsin K at 1 uM using Z-Phe-Arg-AMC as fluorogenic substrate preincubated for 120 mins followed by substrate addition by fluorescence assay
[10] = Drug concentration in plasma of CD-1 mouse at 8 mg/kg, po administered as single cassette dose measured after 60 mins; format: ADME, organism-based
[11] = Drug concentration in brain of CD-1 mouse at 2 mg/kg, iv administered as single cassette dose measured after 15 mins; format: ADME, organism-based; conditions: read-out: Ct
[12] = target: T3, N-acylethanolamine-hydrolyzing acid amidase (Homo sapiens); assay: Inhibition of human NAAA at 1 uM using N-(4-methyl coumarin)-palmitamide as fluorogenic substrate preincubated for 90 mins followed by substrate addition by fluorescence assay relative to control

SMILES: FC1(F)Oc2ccc(-c3ccc(CO[C@H]4C[C@@H](N=C=S)C4)nc3)cc2O1
- IC50 [1]: 0.171 µM

SMILES: CN(Cc1ccc(-c2ccccc2)cc1)[C@H]1C[C@@H](N=C=S)C1
- half-life at 1 µM [2]: 14.7 min
- half-life at 1 µM [3]: 4.4 min
- IC50 [1]: 1.92 µM
- half-life at 1 µM [4]: 5.1 min

SMILES: COc1ccc(CCCC(=O)N[C@H]2C[C@@H](N=C=S)C2)cc1
- IC50 [1]: 0.062 µM

SMILES: COc1ccc(-c2ccc(CO[C@H]3C[C@@H](N=C=S)C3)c(F)c2)cc1F
- inhibition [5]: 56.5%
- Ratio [6]: 2.85 10^6/M/s
- IC50 [1]: 0.0206 µM

SMILES: COc1ccc(-c2ccc(C(=O)N[C@H]3C[C@@H](N=C=S)C3)nc2)cc1F
- concentration at 0.25 h [7]: 264 ng/mL
- half-life at 1 µM [2]: 13 min
- concentration at 0.5 h [8]: 11 ng/mL
- half-life at 1 µM [3]: 8.6 min
- inhibition [9]: inactive
- concentration at 1 h [10]: 8 ng/mL
- IC50 [1]: 0.0266 µM
- concentration at 0.25 h [11]: 690 ng/g
- half-life at 1 µM [4]: 14 min

SMILES: COc1ccc(CCCCCC(=O)N[C@H]2C[C@@H](N=C=S)C2)cc1
- IC50 [1]: 0.0225 µM

- IC50 [1]: 0.0146 µM
SMILES: COc1ccc(-c2ccc(C(C)O[C@H]3C[C@@H](N=C=S)C3)c(F)c2)cc1F (some centres not stated)

SMILES: Fc1cc(-c2ccc3c(c2)OCCO3)ccc1CO[C@H]1C[C@@H](N=C=S)C1
- concentration at 0.25 h [7]: 168 ng/mL
- concentration at 0.5 h [8]: 12 ng/mL
- Ratio [6]: 2.43 10^5/M/s
- concentration at 1 h [10]: 7 ng/mL
- IC50 [1]: 0.0118 µM
- concentration at 0.25 h [11]: 12 ng/g

SMILES: COc1ccc(-c2cc(CO[C@H]3C[C@@H](N=C=S)C3)on2)cc1
- IC50 [1]: 0.0436 µM

SMILES: COc1ccc(-c2ccc(CO[C@]3(C)C[C@H](N=C=S)C3)c(F)c2)cc1F
- IC50 [1]: 0.48 µM

SMILES: COc1cnc(-c2ccc(CO[C@H]3C[C@@H](N=C=S)C3)cn2)cc1F
- half-life at 1 µM [2]: 11.8 min
- half-life at 1 µM [3]: 10.2 min
- inhibition [5]: 56.8%
- IC50 [1]: 0.015 µM
- half-life at 1 µM [4]: 5.1 min

- inhibition [12]: 51%
SMILES: COc1ccc(-c2ncc(C(=O)N[C@H]3C[C@@H](N=C=S)C3)o2)cc1

SMILES: Cc1ccc(-c2ccc(CO[C@H]3C[C@@H](N=C=S)C3)cc2)cc1
- Ratio [6]: 2.04 10^6/M/s
- IC50 [1]: 0.026 µM

SMILES: Fc1cc(-c2ccc3c(c2)OCC3)ccc1CO[C@H]1C[C@@H](N=C=S)C1
- IC50 [1]: 0.0593 µM

SMILES: S=C=N[C@H]1C[C@@H](OCc2ccc(-c3ccc4occc4c3)cn2)C1
- inhibition [5]: 55.8%
- IC50 [1]: 0.0083 µM

SMILES: COc1ccc(-c2ccc(S(=O)(=O)N[C@H]3C[C@@H](N=C=S)C3)nc2)cc1
- concentration at 0.25 h [7]: 126 ng/mL
- concentration at 0.5 h [8]: 3 ng/mL
- inhibition [9]: inactive
- concentration at 1 h [10]: 2 ng/mL
- IC50 [1]: 0.0063 µM
- concentration at 0.25 h [11]: 1150 ng/g

SMILES: COc1ccc(C23CC(C(=O)N[C@H]4C[C@@H](N=C=S)C4)(C2)C3)cc1
- IC50 [1]: 0.128 µM

SMILES: COc1ccc(C2CC(C(=O)N[C@H]3C[C@@H](N=C=S)C3)C2)cc1 (some centres not stated)
- IC50 [1]: 0.0559 µM

SMILES: CCOc1ccc(-c2ccc(CO[C@H]3C[C@@H](N=C=S)C3)c(F)c2)cc1F
- IC50 [1]: 0.0692 µM

SMILES: COc1cc(-c2ccc(CO[C@H]3C[C@@H](N=C=S)C3)c(F)c2)ccc1F
- IC50 [1]: 0.155 µM

SMILES: Fc1cc(-c2cccc(C(F)(F)F)c2)ccc1CO[C@H]1C[C@@H](N=C=S)C1
- concentration at 0.25 h [7]: 1010 ng/mL
- half-life at 1 µM [2]: 16 min
- concentration at 0.5 h [8]: 19 ng/mL
- half-life at 1 µM [3]: 17.9 min
- concentration at 1 h [10]: 331 ng/mL
- IC50 [1]: 0.0672 µM
- concentration at 0.25 h [11]: 810 ng/g
- half-life at 1 µM [4]: 13.2 min

SMILES: Cc1ccc(-c2ccc(CO[C@H]3C[C@H](N=C=S)C3)cc2)cc1
- IC50 [1]: 0.58 µM

SMILES: COc1ccc(-c2ccc(S(=O)(=O)N[C@H]3C[C@@H](N=C=S)C3)cc2)cc1F
- half-life at 1 µM [2]: 8 min
- half-life at 1 µM [3]: 6 min
- inhibition [9]: inactive
- IC50 [1]: 0.0032 µM
- half-life at 1 µM [4]: 6 min

SMILES: COc1ccc(-c2ccc3c(c2)CN([C@H]2C[C@@H](N=C=S)C2)CC3)cc1F
- IC50 [1]: 0.356 µM

SMILES: S=C=N[C@H]1C[C@@H](OCc2ccc(-c3ccccc3)cc2)C1
- half-life at 1 µM [2]: 16.1 min
- half-life at 1 µM [3]: 19.6 min
- Ratio [6]: 7.23 10^6/M/s
- IC50 [1]: 0.093 µM
- half-life at 1 µM [4]: 14.4 min

SMILES: COc1ccc(-c2cnc(C(=O)N[C@H]3C[C@@H](N=C=S)C3)cn2)cc1
- IC50 [1]: 0.853 µM

SMILES: S=C=NC1CN(CCCCCCc2ccccc2)C1
- IC50 [1]: 0.0083 µM

SMILES: COc1ccc(-c2ccc(C(=O)N[C@H]3C[C@@H](N=C=S)C3)nc2)cc1
- concentration at 0.25 h [7]: 264 ng/mL
- concentration at 0.5 h [8]: 12 ng/mL
- inhibition [9]: inactive
- concentration at 1 h [10]: 8 ng/mL
- IC50 [1]: 0.0076 µM
- concentration at 0.25 h [11]: 809 ng/g
